Measured values as given in paper PMC9697031, “Identification of Novel Diarylpyrimidines as Potent HIV-1 Non-Nucleoside Reverse Transcriptase Inhibitors by Exploring the Primer Grip Region” (Pharmaceuticals, 2022).
Where two headings read alike, the source gives them in different places.

Key:
[1] = tested on: HIV-1 L100I mutant strain; test: Anti-HIV-1 mutant strain L100I in MT-4 cells, MTT method; type: cell-based; settings: Human immunodeficiency virus 1, MT4, read-out: EC50 L100I
Procedure: (§2) Evaluation of the anti-HIV activity and cytotoxicity of the target compounds was performed by utilizing the MTT method in MT-4 cells described previously [37]. Stock solutions (10 × final concentration) of test compounds were added in 25 μL volumes to two series of triplicate wells to allow simultaneous evaluation of their effects on mock- and HIV-infected cells at the beginning of each experiment. Serial five-fold dilutions of test compounds were prepared directly in flat-bottomed 96-well microtiter trays by adding 100 μL medium to the 25 μL stock solution and transferring 25 μL of this solution to another well that contained 100 μL medium using a Biomek 3000 robot (Beckman Instruments, Fullerton, CA). Each sample includes untreated control HIV- and mock-infected cell samples. WT HIV-1 strain (IIIB), HIV-1 drug-resistant strains including L100I, K103N, Y181C, Y188L, E138K, K103N/Y181C, F227L/V106A or HIV-2 strain (ROD) stock (50 μL) at 100–300 CCID50 (50% cell culture infectious dose) or culture medium was added to either the infected or mock-infected wells of the microtiter tray. Mock-infected cells were used to evaluate the effect of test compounds on uninfected cells to evaluate their cytotoxicity. Exponentially growing MT-4 cells were centrifuged for 5 min at 1000 rpm, and the supernatant was discarded. […] After infection five days, the viability of mock- and HIV-infected cells was examined spectrophotometrically by the MTT assay.

in vitro = settings: human
Procedure: (§1) Stock solutions (10 × final concentration) of test compounds were added in 25 μL volumes to two series of triplicate wells to allow simultaneous evaluation of their effects on mock- and HIV-infected cells at the beginning of each experiment.

HIV-2 strain (ROD) = test: Anti-HIV-2 (ROD) activity in MT-4 cells, MTT method; type: cell-based
Procedure: as §1

[2] = tested on: HIV-1 Y181C mutant strain; test: Anti-HIV-1 mutant strain Y181C in MT-4 cells, MTT method; type: cell-based; settings: Human immunodeficiency virus 1, MT4, read-out: EC50 Y181C
Procedure: as §2

[3] = tested on: HIV-1 Y188L mutant strain; test: Anti-HIV-1 mutant strain Y188L in MT-4 cells, MTT method; type: cell-based; settings: Human immunodeficiency virus 1, MT4, read-out: EC50 Y188L
Procedure: as §2

[4] = tested on: HIV-1 F227L + V106A mutant strain; test: Anti-HIV-1 double mutant F227L + V106A in MT-4 cells, MTT method; type: cell-based; settings: Human immunodeficiency virus 1, MT4, read-out: EC50 F227L + V106A
Procedure: as §2

[5] = tested on: HIV-1 K103N mutant strain; test: microbe, parasite or virus in culture; type: cell-based; settings: for EC50: Human immunodeficiency virus 1, MT4, read-out: EC50 K103N; for Resistance Folds K103N: RF, EC50 (K103N)/EC50 (WT)
Procedure: as §1

[6] = tested on: HIV-1 RES056 (K103N/Y181C) mutant strain; test: Anti-HIV-1 double mutant RES056 in MT-4 cells, MTT method; type: cell-based; settings: Human immunodeficiency virus 1, MT4, read-out: EC50 RES056
Procedure: as §2

WT HIV-1 strain (IIIB) = test: Anti-HIV-1 (IIIB, wild-type) activity in MT-4 cells, MTT method; type: cell-based; settings: for SI (IIIB): selectivity index, CC50/EC50 (IIIB)
Procedure: as §1

[7] = tested on: HIV-1 E138K mutant strain; test: Anti-HIV-1 mutant strain E138K in MT-4 cells, MTT method; type: cell-based; settings: Human immunodeficiency virus 1, MT4, read-out: EC50 E138K
Procedure: as §2

HIV-1 WT RT = target: T1, HIV-1 WT RT (Human immunodeficiency virus type 1 group M subtype B, UniProt P04585); test: HIV-1 RT inhibition assay (Roche kit, ELISA); type: biochemical
T1 construct: The RT is a heterodimer consisting of two subunits, p66 (560 residues) and p51 (440 residues); purchased Roche
Procedure: An HIV-1 reverse transcriptase (RT) assay kit produced by Roche was used for the RT inhibition assay. All the reagents for performing the RT reaction came from the kit, and the ELSIA procedures for RT inhibition assay were conducted following the description in the kit protocol [38]. […] Then used, a washing buffer was used to remove the unbound dNTPs, and an anti-DIG-POD working solution was added. […] The unbound anti-DIG-PODs were removed, and the peroxidesubstrate (ABST) solution was added to the MTPs. A colored reaction proceeds during the cleavage of the substrate catalyzed by POD. […] The percentage inhibitory activity of RT inhibitors was calculated by the formula given below: % Inhibition = [O.D. value with RT but without inhibitors − O.D. value with RT and inhibitors]/[O.D. value with RT and inhibitors − O.D. value without RT and inhibitors].

[8] = Human immunodeficiency virus 1, MT4, MT-4 cells, WT HIV-1 IIIB, MTT, read-out: EC50 IIIB
[9] = Human immunodeficiency virus 2, MT4, read-out: EC50 ROD
[10] = Human immunodeficiency virus 1, IIIB, MT4, read-out: EC50 IIIB, MT-4 cells, WT HIV-1 IIIB, MTT

| SMILES | EC50 [1] [nM] | CC50 at 5 days (in vitro) [nM] | EC50 (HIV-2 strain (ROD); Human immunodeficiency virus 2, MT4, MT-4 cells, HIV-2 ROD, MTT, read-out: EC50 ROD) [nM] | EC50 [2] [nM] | EC50 [3] [nM] | EC50 [4] [nM] | EC50 [5] [nM] | EC50 [6] [nM] | EC50 (WT HIV-1 strain (IIIB); [8]) [nM] | SI (IIIB) (WT HIV-1 strain (IIIB)) | EC50 [7] [nM] | EC50 (HIV-2 strain (ROD); [9]) [nM] | IC50 (HIV-1 WT RT) [nM] | melting point [°C] | Resistance Folds K103N [5] | EC50 (WT HIV-1 strain (IIIB); [10]) [nM] |
| --- | --- | --- | --- | --- | --- | --- | --- | --- | --- | --- | --- | --- | --- | --- | --- | --- |
| Cc1cn([C@H]2C[C@H](N=[N+]=[N-])[C@@H](CO)O2)c(=O)[nH]c1=O [AZT, Zidovudine, reference compound] | 10 ± 1.2 | > 7480 | 23.3 ± 2.1 | 25.1 ± 3 | 19.4 ± 2.9 | 14.8 ± 1.1 | 22.8 ± 1.1 | 25.1 ± 1.8 | 27.3 ± 3.5 | >274.0 | 30.1 ± 3 |  |  |  |  |  |
| O=C1Nc2ccc(Cl)cc2[C@@](C#CC2CC2)(C(F)(F)F)O1 [EFV, efavirenz, reference compound] | 35 ± 4.7 | > 6340 |  | 5.5 ± 0.5 | 240 ± 30.4 | 201 ± 17.3 | 95.1 ± 9.1 | 184 ± 22 | 2.4 ± 0.3 |  | 4.4 ± 0.3 |  |  |  |  |  |
| Cc1ccnc2c1NC(=O)c1cccnc1N2C1CC1 [NVP, nevirapine, reference compound] | 1860 ± 365 | > 15000 |  | 10100 | ≥ 13800 | > 15000 | 7500 ± 867 | > 15000 | 123 ± 7.3 |  | 149 ± 12 |  |  |  |  |  |
| Cc1cc(COc2ccccc2)cc(C)c1Oc1ccnc(Nc2ccc(C#N)cc2)n1 [TF1, 4-((4-(2,6-dimethyl-4-(phenoxymethyl)phenoxy)pyrimidin-2-yl)amino) benzonitrile] | 221 ± 53.5 | > 296000 |  | 515 ± 60.4 | 1520 ± 92.1 | 1710 ± 581 | 50.7 ± 9.6 | 6850 ± 1170 |  | >17,326.7 | 76.5 ± 9.4 | > 296000 | 62 | 179 to 182 | 3.00 | 17.1 ± 2.3 |
| Cc1cc(COc2ccc(C#N)cc2)cc(C)c1Oc1ccnc(Nc2ccc(C#N)cc2)n1 [TF2, 4-((4-(4-((4-cyanophenoxy)methyl)-2,6-dimethylphenoxy)pyrimidin-2-yl)amino) benzonitrile] | 117 ± 49.5 | > 279000 |  | 139 ± 34.9 | 1390 ± 119 | 1140 ± 346 | 28.1 ± 7.1 | > 279000 |  | >36,610.9 | 44 ± 2.9 | > 279000 | 55 ± 1 | 202 to 205 | 3.68 | 7.6 ± 0.6 |
| Cc1cc(COc2cccc(C#N)c2)cc(C)c1Oc1ccnc(Nc2ccc(C#N)cc2)n1 [TF3, 3-((4-((2-((4-cyanophenyl)amino)pyrimidin-4-yl)oxy)-3,5-dimethylbenzyl)oxy) benzonitrile] | 116 ± 5.8 | 5520 ± 297 |  | 245 ± 39.6 | 895 ± 90.2 | 755 ± 156 | 48.4 ± 7.5 | 1540 ± 102 |  |  | 87.7 ± 8.5 | > 5520 | 60 |  | 1.92 | 24.5 ± 4.1 |
| Cc1cc(COc2ccccc2C#N)cc(C)c1Oc1ccnc(Nc2ccc(C#N)cc2)n1 [TF4, 2-((4-((2-((4-cyanophenyl)amino)pyrimidin-4-yl)oxy)-3,5-dimethylbenzyl)oxy) benzonitrile] | 315 ± 30.7 | 5290 ± 356 |  | 482 ± 42.6 | > 5300 | 1280 ± 303 | 75.9 ± 13.9 | > 5300 |  |  | 103 ± 6.8 | > 5290 | 50 ± 2 |  | 9.74 | 7.8 ± 1 |
| COc1ccc(OCc2cc(C)c(Oc3ccnc(Nc4ccc(C#N)cc4)n3)c(C)c2)cc1 [TF5, 4-((4-(4-((4-methoxyphenoxy)methyl)-2,6-dimethylphenoxy)pyrimidin-2-yl)amino)benzonitrile] | 126 ± 12.6 | 254000 |  | 268 ± 28.9 | 964 ± 98.1 | 1410 ± 570 | 44.5 ± 4.9 | > 254000 |  |  | 65.3 ± 10 | > 254000 | 54 ± 4 |  | 2.00 | 21.7 ± 3.6 |
| COc1cccc(OCc2cc(C)c(Oc3ccnc(Nc4ccc(C#N)cc4)n3)c(C)c2)c1 [TF6, 4-((4-(4-((3-methoxyphenoxy)methyl)-2,6-dimethylphenoxy)pyrimidin-2-yl)amino)benzonitrile] | 156 ± 16.8 | 6900 ± 249 |  | 387 ± 87.4 | 1390 ± 83.6 | 1100 ± 281 | 91.2 ± 14.4 | > 6900 |  | 195.6 | 149.7 ± 0.7 | > 6900 | 52 ± 4 | 149 to 152 | 2.60 | 35.3 ± 4.1 |
| COc1ccccc1OCc1cc(C)c(Oc2ccnc(Nc3ccc(C#N)cc3)n2)c(C)c1 [TF7, 4-((4-(4-((2-methoxyphenoxy)methyl)-2,6-dimethylphenoxy)pyrimidin-2-yl)amino)benzonitrile] | 452 ± 70.5 | 8150 ± 548 |  | 791 ± 62.9 | > 8150 | 1220 ± 179 | 164 ± 5.5 | > 8150 |  |  | 181 ± 10.7 | > 8150 | 73 ± 3 |  | 6.31 | 25.5 ± 8.4 |
| Cc1cc(COc2ccc(CO)cc2)cc(C)c1Oc1ccnc(Nc2ccc(C#N)cc2)n1 [TF8, 4-((4-(4-((4-(hydroxymethyl)phenoxy)methyl)-2,6-dimethylphenoxy)pyrimidin-2-yl)amino)benzonitrile] | 329 ± 56.7 | 2920 ± 272 |  | 667 ± 78 | 886 ± 20.1 | 853 ± 81.4 | 110 ± 4.6 | 1419 ± 9.7 |  | 68.1 | 148 ± 4.6 | > 2920 | 41 ± 1 | 209 to 212 | 2.56 | 42.8 ± 5.6 |
| Cc1cc(COc2cccc(CO)c2)cc(C)c1Oc1ccnc(Nc2ccc(C#N)cc2)n1 [TF9, 4-((4-(4-((3-(hydroxymethyl)phenoxy)methyl)-2,6-dimethylphenoxy)pyrimidin-2-yl)amino)benzonitrile] | 308 ± 46.3 | 3460 ± 375 |  | 499 ± 44.6 | 1100 ± 95.7 | 1000 ± 29.6 | 120 ± 18.2 | 1590 ± 87.5 |  | 113.3 | 147 ± 12 | > 3460 | 53 | 147 to 150 | 3.87 | 30.5 ± 4 |
| Cc1cc(COc2ccccc2CO)cc(C)c1Oc1ccnc(Nc2ccc(C#N)cc2)n1 [TF10, 4-((4-(4-((2-(hydroxymethyl)phenoxy)methyl)-2,6-dimethylphenoxy)pyrimidin-2-yl)amino)benzonitrile] | 635 ± 28.2 | 4800 ± 342 |  | 766 ± 22.5 | > 4800 | 1490 ± 33.9 | 158 ± 18.6 | > 4800 |  | 149.1 | 179 ± 26.9 | > 4800 | 55 | 179 to 182 | 4.94 | 32.2 ± 3.3 |
| Cc1cc(COc2cccnc2)cc(C)c1Oc1ccnc(Nc2ccc(C#N)cc2)n1 [TF11, 4-((4-(2,6-Dimethyl-4-((pyridin-3-yloxy)methyl)phenoxy)pyrimidin-2-yl)amino) benzonitrile] | 9574 ± 22.2 | 14800 |  | > 14800 | > 14800 | > 14800 | 444 ± 68.6 | > 14800 |  | 74.5 | ≥ 3020 | > 14800 | 483 ± 30 | 237 to 240 | 2.23 | 199 ± 13 |
| Cc1cc(COc2ccc([N+](=O)[O-])cc2)cc(C)c1Oc1ccnc(Nc2ccc(C#N)cc2)n1 [TF15, 4-((4-(2,6-Dimethyl-4-((4-nitrophenoxy)methyl)phenoxy)pyrimidin-2-yl)amino) benzonitrile] | 105 ± 15.2 | 215000 |  | 196 ± 25.4 | 1080 ± 99.4 | 1660 ± 448 | 46.3 ± 9.7 | 1800 ± 68.5 |  |  | 50 ± 4.4 | > 215000 | 63 ± 1 |  | 2.00 | 23.1 ± 3.1 |
| Cc1cc(COc2ccc(N)cc2)cc(C)c1Oc1ccnc(Nc2ccc(C#N)cc2)n1 [TF17, 4-((4-(4-((4-Aminophenoxy)methyl)-2,6-dimethylphenoxy)pyrimidin-2-yl)amino) benzonitrile] | 226 ± 28.9 | 5490 ± 328 |  | 552 ± 62.5 | 905 ± 147 | 747 ± 72.2 | 65.3 ± 7.6 |  |  |  | 152 ± 10.3 | > 5490 | 57 ± 3 |  | 1.97 | 32.5 ± 1.7 |
